According to US20260184707A1, “PHARMACEUTICAL COMPOUNDS FOR THE TREATMENT OF COMPLEMENT MEDIATED DISORDERS” (ALEXION PHARMACEUTICALS, INC., priority 2022, published 2026):

Each compound was assayed against T1, Human complement C1s enzyme (Homo sapiens, UniProt P09871) (assay: Human C1s enzyme assay). Conditions: human complement C1s enzyme 1.16 nM, substrate Z-L-Lys-SBzl, A405; read-out: IC50 (Stars).
T1 construct: purified from human serum, Complement Technology, Inc; purchased Complement Technology, Inc; host or cells: human serum (plasma-derived native protein)
T1 sequence (P09871 438-688 limits assumed): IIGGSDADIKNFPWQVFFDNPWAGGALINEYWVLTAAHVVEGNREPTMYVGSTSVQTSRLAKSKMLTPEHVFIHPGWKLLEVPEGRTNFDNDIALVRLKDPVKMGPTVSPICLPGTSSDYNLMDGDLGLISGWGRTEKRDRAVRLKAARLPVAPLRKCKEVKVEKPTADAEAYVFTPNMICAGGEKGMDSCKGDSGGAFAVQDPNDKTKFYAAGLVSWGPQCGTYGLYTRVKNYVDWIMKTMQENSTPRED
T1 sequence (P09871 16-437 partner limits assumed): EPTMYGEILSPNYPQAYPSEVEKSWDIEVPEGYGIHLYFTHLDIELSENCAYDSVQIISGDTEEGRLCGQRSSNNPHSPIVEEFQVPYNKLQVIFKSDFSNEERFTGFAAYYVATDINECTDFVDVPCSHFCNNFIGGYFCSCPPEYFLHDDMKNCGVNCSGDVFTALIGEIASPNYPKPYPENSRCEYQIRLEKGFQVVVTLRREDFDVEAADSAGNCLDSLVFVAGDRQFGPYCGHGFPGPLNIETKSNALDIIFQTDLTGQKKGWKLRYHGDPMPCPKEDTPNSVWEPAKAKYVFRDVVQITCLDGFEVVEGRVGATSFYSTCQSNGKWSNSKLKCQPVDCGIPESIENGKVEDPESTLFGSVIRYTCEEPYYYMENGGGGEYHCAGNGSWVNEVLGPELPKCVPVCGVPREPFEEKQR
Assay type: biochemical
In short: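 Thioesterase activity followed colorimetrically (DTNB, A405, 30-s reads) using 100 μM Z-L-Lys-SBzl substrate. Enzyme, human serum-derived C1s at 1.16 nM final, was incubated with test compound for 5 min, room temperature, pH 7.5 Tris buffer with 1 M NaCl. Rate-versus-concentration data fitted by nonlinear regression for IC50.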

Compound | IC50 [nM]
O=C(Cn1c(-c2ccc(C(F)(F)F)cc2)ncc(NCc2ccc3oc4ccccc4c3c2)c1=O)NCc1cc2cnccc2[nH]1 [Compound 135, N-((1H-pyrrolo[3,2-c]pyridin-2-yl)methyl)-2-(5-((dibenzo [b,d]furan-2-ylmethyl)amino)-6-oxo-2-(4-(trifluoromethyl)-phenyl)pyrimidin-1(6H)-yl)-acetamide] | < 100
O=C(Cn1c(-c2ccccc2)ncc(NC(=O)c2ccc(-c3ccccc3)s2)c1=O)NCc1ccc(Cl)cc1 [Compound 256, N-(1-(2-((4-chlorobenzyl)-amino)-2-oxoethyl)-6-oxo-2-phenyl-1,6-dihydropyrimidin-5-yl)-5-phenylthiophene-2-carboxamide] | > 1000
Cn1cc(-c2ncc(NCc3cc4ccccc4o3)c(=O)n2CC(=O)NCc2cc3cnccc3[nH]2)cn1 [Compound 483, N-((1H-pyrrolo[3,2-c]pyridin-2-yl)methyl)-2-(5-((benzo-furan-2-ylmethyl)amino)-2-(1-methyl-1H-pyrazol-4-yl)-6-oxopyrimidin-1(6H)-yl)-acetamide] | < 100
O=C(Cn1c(-c2ccc(O[C@@H]3CO[C@H]4[C@@H]3OC[C@H]4O)cc2)ncc(NC(=O)c2cnc(-c3ccccc3)s2)c1=O)NCc1cc2cnccc2[nH]1 [Compound 263, N-(1-(2-(((1H-pyrrolo[3,2-c]pyridine-2-yl)methyl)amino)-2-oxoethyl)-2-(4-(((3R,3aR,6R,6aR)-6-hydroxyhexahydrofuro[3,2-b]furan-3-yl)oxy)phenyl)-6-oxo-1,6-dihydropyrimidin-5-yl)-2-phenylthiazole-5-carboxamide] | < 100
O=C(Cn1c(-c2ccccc2)ncc(NC(=O)c2csc(-c3ccccc3)c2)c1=O)NCc1cc2cnccc2[nH]1 [Compound 218, N-(1-(2-(((1H-pyrrolo[3,2-c]pyridin-2-yl)methyl)amino)-2-oxoethyl)-6-oxo-2-phenyl-1,6-dihydropyrimidin-5-yl)-5-phen-ylthiophene-3-carboxamide] | < 100
O=C(Cn1c(-c2ccccc2)ncc(NC(=O)c2coc(-c3ccccc3)n2)c1=O)NCc1cc2cnccc2[nH]1 [Compound 111, N-(1-(2-(((1H-pyrrolo[3,2-c]pyridin-2-yl)methyl)amino)-2-oxoethyl)-6-oxo-2-phenyl-1,6-dihydropyrimidin-5-yl)-2-phenyloxazole-4-carboxamide] | < 100
O=C(Cn1c(-c2ccccc2)ncc(NC(=O)c2ccc(-c3ccccc3)o2)c1=O)NCc1cc2cnccc2[nH]1 [Compound 206, N-(1-(2-(((1H-pyrrolo[3,2-c]pyridin-2-yl)methyl)amino)-2-oxoethyl)-6-oxo-2-phenyl-1,6-dihydropyrimidin-5-yl)-5-phen-ylfuran-2-carboxamide] | < 100
O=C(Cn1c(-c2ccco2)ncc(NCc2ccc3oc4ccccc4c3c2)c1=O)NCc1cc2cnccc2[nH]1 [Compound 232, N-((1H-pyrrolo[3,2-c]pyridin-2-yl)methyl)-2-(5-((dibenzo [b,d]furan-2-ylmethyl)amino)-2-(furan-2-yl)-6-oxopyrimidin-1(6H)-yl)acetamide] | < 100
O=C(Cn1c(-c2ccccc2)ncc(-c2nc3ccc(Oc4ccccc4)cc3[nH]2)c1=O)NCc1cc2cnccc2[nH]1 [Compound 81, N-((1H-pyrrolo[3,2-c]pyridin-2-yl)methyl)-2-(6-oxo-5-(6-phenoxy-1H-benzo[d]imidazol-2-yl)-2-phenylpyrimidin-1(6H)-yl)acetamide] | > 1000
O=C(Cn1c(N2CCOCC2)ncc(NC(=O)CCc2ccccc2)c1=O)NCc1cc2cnccc2[nH]1 [Compound 409, N-(1-(2-(((1H-pyrrolo[3,2-c]pyridin-2-yl)methyl)amino)-2-oxoethyl)-2-morpholino-6-oxo-1,6-dihydropyrimidin-5-yl)-3-phenylpropanamide] | < 100
O=C(Cn1c(N2CCOCC2)ncc(NCc2ccc3oc4ccccc4c3c2)c1=O)NCc1cc2cnccc2[nH]1 [Compound 260, N-((1H-pyrrolo[3,2-c]pyridin-2-yl)methyl)-2-(5-((dibenzo [b,d]furan-2-ylmethyl)amino)-2-morpholino-6-oxopyrimidin-1(6H)-yl)acetamide] | < 100
O=C(Cn1c(-c2ccccc2)ncc(NC(=O)c2ccc(-c3cnco3)cc2)c1=O)NCc1cc2cnccc2[nH]1 [Compound 93, N-(1-(2-(((1H-pyrrolo[3,2-c]pyridin-2-yl)methyl)amino)-2-oxoethyl)-6-oxo-2-phenyl-1,6-dihydropyrimidin-5-yl)-4-(oxazol-5-yl)benzamide] | < 100
Cc1cccc(-c2ncc(NCCCc3ccccc3)c(=O)n2CC(=O)NCc2cc3cnccc3[nH]2)c1F [Compound 435, N-((1H-pyrrolo[3,2-c]pyridin-2-yl)methyl)-2-(2-(2-fluoro-3-methylphenyl)-6-oxo-5-((3-phenylpropyl)amino)pyrimi-din-1(6H)-yl)acetamide] | < 100
C[C@@H](Nc1cnc(-c2cccs2)n(CC(=O)NCc2cc3cnccc3[nH]2)c1=O)c1ccc2oc3ccccc3c2c1 [Compound 327, (R)-N-((1H-pyrrolo[3,2-c]pyridin-2-yl)methyl)-2-(5-((1-(dibenzo[b,d]furan-2-yl)ethyl)-amino)-6-oxo-2-(thiophen-2-yl)pyrimidin-1(6H)-yl)acet-amide] | < 100
O=C(Cn1cncc(NCc2cc(-c3ccccc3)ns2)c1=O)NCc1cc2cnccc2[nH]1 [Compound 484, N-((1H-pyrrolo[3,2-c]pyridin-2-yl)methyl)-2-(6-oxo-5-(((3-phenylisothiazol-5-yl)methyl)-amino)pyrimidin-1(6H)-yl)-acetamide] | < 100

Now from value to compound:

IC50 [nM] | Compound
100 to 1000 | C[C@@H](Nc1cnc(N2CCCCC2)n(CC(=O)NCc2cc3cnccc3[nH]2)c1=O)c1coc(-c2ccccc2)n1 [Compound 460, (R)-N-((1H-pyrrolo[3,2-c]pyridin-2-yl)methyl)-2-(6-oxo-5-((1-(2-phenyloxazol-4-yl)-ethyl)amino)-2-(piperidin-1-yl)pyrimidin-1(6H)-yl)acet-amide]
< 100 | C[C@@H](Nc1cnc(N2CCCCC2)n(CC(=O)NCc2cc3cnccc3[nH]2)c1=O)c1nc(-c2ccccc2)co1 [Compound 487, (R)—N-((1H-Pyrrolo[3,2-c]pyridine-2-yl)methyl)-2-(6-oxo-5-((1-(4-phenyloxazol-2-yl)ethyl)amino)-2-(piperidin-1-yl)pyrimidin-1(6H)-yl) acetamide]
< 100 | O=C(Cn1c(N2CCOCC2)cnc(NC(=O)c2coc(-c3ccccc3)n2)c1=O)NCc1cc2cnccc2[nH]1 [Compound 492, N-(4-(2-(((1H-Pyrrolo[3,2-c]pyridine-2-yl)methyl)amino)-2-oxoethyl)-5-morpholino-3-oxo-3,4-dihydropyrazin-2-yl)-2-phenyloxazole-4-carboxamide]
< 100 | C[C@@H](Nc1ncc(N2CCCCC2)n(CC(=O)NCc2cc3cnccc3[nH]2)c1=O)c1ccc2oc3ccccc3c2c1 [Compound 415, (R)-N-((1H-pyrrolo[3,2-c]pyridin-2-yl)methyl)-2-(3-((1-(dibenzo[b,d]furan-2-yl)ethyl)-amino)-2-oxo-6-(piperidin-1-yl)pyrazin-1(2H)-yl)acetamide]
< 100 | Cc1ccc(F)c(-c2ncc(NCCCc3ccccc3)c(=O)n2CC(=O)NCc2cc3cnccc3[nH]2)c1 [Compound 439, N-((1H-pyrrolo[3,2-c]pyridin-2-yl)methyl)-2-(2-(2-fluoro-5-methylphenyl)-6-oxo-5-((3-phenylpropyl)amino)pyrimi-din-1(6H)-yl)acetamide]
< 100 | C[C@@H](Nc1cnc(-c2ccccc2)n(CC(=O)NCc2cc3cnccc3[nH]2)c1=O)c1ccc2c(c1)-c1ccccc1C2(F)F [Compound 359, (R)-N-((1H-pyrrolo[3,2-c]pyridin-2-yl)methyl)-2-(5-((1-(9,9-difluoro-9H-fluoren-3-yl)-ethyl)amino)-6-oxo-2-phenyl-pyrimidin-1(6H)-yl)acetamide]
< 100 | C[C@@H](Nc1ncc(N2CCCC(O)C2)n(CC(=O)NCc2cc3cnccc3[nH]2)c1=O)c1ccc2oc3ccccc3c2c1 (stereo partly drawn) [Compound 424, N-((1H-pyrrolo[3,2-c]pyridin-2-yl)methyl)-2-(3-(((R)-1-(dibenzo[b,d]furan-2-yl)ethyl)-amino)-6-(3-hydroxypiperidin-1-yl)-2-oxopyrazin-1(2H)-yl)-acetamide]
< 100 | C[C@@H](Nc1ncc(N2CCCCC2)n(CC(=O)NCc2cc3cnccc3[nH]2)c1=O)c1ccc(-c2ccccc2F)cc1 [Compound 423, (R)-N-((1H-pyrrolo[3,2-c]pyridin-2-yl)methyl)-2-(3-((1-(2′-fluoro-[1,1′-biphenyl]-4-yl)ethyl)amino)-2-oxo-6-(piperidin-1-yl)pyrazin-1(2H)-yl)acetamide]
< 100 | C[C@@H](Nc1cnc(-n2cccc2)n(CC(=O)NCc2cc3cnccc3[nH]2)c1=O)c1ccc2oc3ccccc3c2c1 [Compound 397, (R)-N-((1H-pyrrolo[3,2-c]pyridin-2-yl)methyl)-2-(5-((1-(dibenzo[b,d]furan-2-yl)ethyl)-amino)-6-oxo-2-(1H-pyrrol-1-yl)pyrimidin-1(6H)-yl)acet-amide]
